Four compounds from ChEMBL document CHEMBL3045781, “Sensitivity monitoring of powdery mildew pathogens to cyflufenamid and the evaluation of resistance risk” (J Pestic Sci, 2006) can be followed below.

Values after ≈ are worked out from the molar mass of the structure shown.

The test system of assay [1] is Blumeria graminis f. sp. tritici. Description: Antifungal activity against Blumeria graminis f. sp. tritici after 6.25 g/ha 6 applications of compound in pot by selection pressure test (Control = 0.097 ppm). Format: functional, organism-based.
For assay [2], the system named is Podosphaera fusca. The assay can be described thus: Antifungal activity against kresoxim-methyl-resistant Sphaerotheca cucurbitae SFKMR-1. The format is functional.
The subject of assay [3] is Podosphaera fusca. The assay can be described thus: Antifungal activity against Sphaerotheca cucurbitae in compound treated cucumber leaves at 20 degC measured after 5 days by leaf disk assay. Format: functional, organism-based.
Assay [4] deals with Podosphaera fusca. Description: Antifungal activity against thiophanate-methyl-resistant Sphaerotheca cucurbitae SFTMR-1. The format is functional.
In assay [5] the test system is Blumeria graminis f. sp. tritici. The assay can be described thus: Antifungal activity against Blumeria graminis f. sp. tritici after 6.25 g/ha 16 applications of compound by selection pressure test. Format: functional, organism-based.
The test system is the same in assay [6]. The assay can be described thus: Antifungal activity against Blumeria graminis f. sp. tritici strains in compound treated wheat seedlings measured after 7 days by pot assay. Format: functional, organism-based.
For assay [7], the system named is Podosphaera fusca. Description: Antifungal activity against triflumizole-resistant Sphaerotheca cucurbitae SFTFR-1. The format is functional.
Assay [8] has as its system Podosphaera fusca. The assay can be described thus: Antifungal activity against wild type Sphaerotheca cucurbitae SFS-1. Format: functional.
Assay [9] deals with Blumeria graminis f. sp. tritici. Description: Antifungal activity against Blumeria graminis f. sp. tritici strains by leaf segment floating assay. The format is functional, organism-based.

In the case of `O=C(Cc1ccccc1)N/C(=N\OCC1CC1)c1c(C(F)(F)F)ccc(F)c1F` [CYFLUFENAMID], the EC50 in [1] amounted to 0.007 ppm; in the assay on Podosphaera fusca [3] it was 0.0019 ppm; in assay [5], 0.0008 ppm; in assay [6], 0.029 ppm; in assay [9], 0.0011 ppm. Besides, the MIC in the assay on Podosphaera fusca [2] worked out at 0.8 µg/mL (≈ 1.94 µM); with Podosphaera fusca [3] (Podosphaera fusca, 120 h), 0.001 µg/mL (≈ 0.00243 µM); in the assay with Podosphaera fusca [4], 0.8 µg/mL (≈ 1.94 µM); in [6] (Blumeria graminis, 168 h), 0.2 µg/mL (≈ 0.485 µM); with Podosphaera fusca [7], 0.8 µg/mL (≈ 1.94 µM); against Podosphaera fusca [8], 0.8 µg/mL (≈ 1.94 µM).

Regarding `COC(=O)NC(=S)Nc1ccccc1NC(=S)NC(=O)OC` [THIOPHANATE METHYL], the MIC against Podosphaera fusca [4] is > 100 µg/mL; against Podosphaera fusca [8], 1 µg/mL (≈ 2.92 µM).

For the compound `CCCOC/C(=N\c1ccc(Cl)cc1C(F)(F)F)n1ccnc1` [TRIFLUMIZOLE], the MIC against Podosphaera fusca [7] worked out at 5 µg/mL (≈ 14.5 µM); in the assay with Podosphaera fusca [8], 0.1 µg/mL (≈ 0.289 µM).

`CO/N=C(/C(=O)OC)c1ccccc1COc1ccccc1C` [KRESOXIM-METHYL]: the MIC against Podosphaera fusca [2] is > 100 µg/mL; in the assay on Podosphaera fusca [8] it was 0.8 µg/mL (≈ 2.55 µM).
